Data taken from PubChem BioAssay (NCI).
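Exposure lasted 48 hours, with cells grown in 96-well plates and compounds tested at five concentrations. Here, GI50 denotes the concentration required for 50% inhibition of growth. TGI: total growth inhibition.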

Experiments:
Assay in all cases: growth of human tumour cells (NCI), 48 h
HCC-2998 colon = tested on: HCC-2998 colon
SNB-75 CNS = tested on: SNB-75 CNS
RPMI-8226 leukemia = tested on: RPMI-8226 leukemia
A549 NSCLC = tested on: A549 NSCLC
SF-539 CNS = tested on: SF-539 CNS
CAKI-1 renal = tested on: CAKI-1 renal
SF-268 CNS = tested on: SF-268 CNS
HL-60(TB) leukemia = tested on: HL-60(TB) leukemia
TK-10 renal = tested on: TK-10 renal
MALME-3M melanoma = tested on: MALME-3M melanoma
MCF7 breast = tested on: MCF7 breast
NCI-H522 lung = tested on: NCI-H522 lung
NCI/ADR-RES ovarian = tested on: NCI/ADR-RES ovarian
UACC-62 melanoma = tested on: UACC-62 melanoma
NCI-H23 lung = tested on: NCI-H23 lung
DU-145 prostate = tested on: DU-145 prostate
OVCAR-3 ovarian = tested on: OVCAR-3 ovarian
MDA-MB-231 breast = tested on: MDA-MB-231 breast
MOLT-4 leukemia = tested on: MOLT-4 leukemia
UO-31 renal = tested on: UO-31 renal
HCT-116 colon = tested on: HCT-116 colon
SK-OV-3 ovarian = tested on: SK-OV-3 ovarian
SNB-19 CNS = tested on: SNB-19 CNS
A498 renal = tested on: A498 renal
786-0 renal = tested on: 786-0 renal
SR leukemia = tested on: SR leukemia
U251 CNS = tested on: U251 CNS
CCRF-CEM leukemia = tested on: CCRF-CEM leukemia
SF-295 CNS = tested on: SF-295 CNS
OVCAR-8 ovarian = tested on: OVCAR-8 ovarian
LOX IMVI melanoma = tested on: LOX IMVI melanoma
SK-MEL-2 melanoma = tested on: SK-MEL-2 melanoma
SK-MEL-28 melanoma = tested on: SK-MEL-28 melanoma
UACC-257 melanoma = tested on: UACC-257 melanoma
HS 578T breast = tested on: HS 578T breast
SN12C renal = tested on: SN12C renal
OVCAR-4 ovarian = tested on: OVCAR-4 ovarian
M14 melanoma = tested on: M14 melanoma
NCI-H226 lung = tested on: NCI-H226 lung
KM12 colon = tested on: KM12 colon
ACHN renal = tested on: ACHN renal
BT-549 breast = tested on: BT-549 breast
SK-MEL-5 melanoma = tested on: SK-MEL-5 melanoma
OVCAR-5 ovarian = tested on: OVCAR-5 ovarian
EKVX NSCLC = tested on: EKVX NSCLC
HOP-92 NSCLC = tested on: HOP-92 NSCLC
PC-3 prostate = tested on: PC-3 prostate

SMILES: Cc1cc2cn3c4ccc(O)cc4nc(N)c3c2cc1C
- GI50 (HCC-2998 colon): 539 nM
- TGI (HCC-2998 colon): 3780 nM
- GI50 (SNB-75 CNS): 211 nM
- TGI (SNB-75 CNS): 9750 nM
- GI50 (RPMI-8226 leukemia): 71.3 nM
- TGI (RPMI-8226 leukemia): 2010 nM
- GI50 (A549 NSCLC): 132 nM
- TGI (A549 NSCLC): 1460 nM
- GI50 (SF-539 CNS): 221 nM
- TGI (SF-539 CNS): 1050 nM
- GI50 (CAKI-1 renal): 176 nM
- TGI (CAKI-1 renal): 5130 nM
- GI50 (SF-268 CNS): 197 nM
- TGI (SF-268 CNS): 5420 nM
- GI50 (HL-60(TB) leukemia): 33.1 nM
- TGI (HL-60(TB) leukemia): 1210 nM
- GI50 (TK-10 renal): 818 nM
- TGI (TK-10 renal): 2760 nM
- GI50 (MALME-3M melanoma): 2180 nM
- TGI (MALME-3M melanoma): 26700 nM
- GI50 (MCF7 breast): 429 nM
- TGI (MCF7 breast): 1760 nM
- GI50 (NCI-H522 lung): 17.5 nM
- TGI (NCI-H522 lung): 293 nM
- GI50 (NCI/ADR-RES ovarian): < 20.4 nM
- TGI (NCI/ADR-RES ovarian): 498 nM
- GI50 (UACC-62 melanoma): < 10 nM
- TGI (UACC-62 melanoma): 1310 nM
- GI50 (NCI-H23 lung): 266 nM
- TGI (NCI-H23 lung): 5090 nM
- GI50 (DU-145 prostate): 53.5 nM
- TGI (DU-145 prostate): 1630 nM
- GI50 (OVCAR-3 ovarian): < 17.6 nM
- TGI (OVCAR-3 ovarian): 1700 nM
- GI50 (MDA-MB-231 breast): 350 nM
- TGI (MDA-MB-231 breast): 1690 nM
- GI50 (MOLT-4 leukemia): 82.8 nM
- TGI (MOLT-4 leukemia): 2480 nM
- GI50 (UO-31 renal): 227 nM
- TGI (UO-31 renal): 3260 nM
- GI50 (HCT-116 colon): < 10 nM
- TGI (HCT-116 colon): 1320 nM
- GI50 (SK-OV-3 ovarian): 233 nM
- TGI (SK-OV-3 ovarian): 5000 nM
- GI50 (SNB-19 CNS): 146 nM
- TGI (SNB-19 CNS): 18600 nM
- GI50 (A498 renal): 289 nM
- TGI (A498 renal): 22700 nM
- GI50 (786-0 renal): 54.1 nM
- TGI (786-0 renal): 1700 nM
- GI50 (SR leukemia): < 28.4 nM
- TGI (SR leukemia): 1740 nM
- GI50 (U251 CNS): < 10 nM
- TGI (U251 CNS): 1390 nM
- GI50 (CCRF-CEM leukemia): 16.3 nM
- TGI (CCRF-CEM leukemia): 2130 nM
- GI50 (SF-295 CNS): 150 nM
- TGI (SF-295 CNS): 1280 nM
- GI50 (OVCAR-8 ovarian): 180 nM
- TGI (OVCAR-8 ovarian): 1490 nM
- GI50 (LOX IMVI melanoma): < 10 nM
- TGI (LOX IMVI melanoma): 1580 nM
- GI50 (SK-MEL-2 melanoma): < 10 nM
- TGI (SK-MEL-2 melanoma): 1340 nM
- GI50 (SK-MEL-28 melanoma): 96.1 nM
- TGI (SK-MEL-28 melanoma): 2100 nM
- GI50 (UACC-257 melanoma): 1110 nM
- TGI (UACC-257 melanoma): 3080 nM
- GI50 (HS 578T breast): 170 nM
- TGI (HS 578T breast): 11000 nM
- GI50 (SN12C renal): 172 nM
- TGI (SN12C renal): 1890 nM
- GI50 (OVCAR-4 ovarian): 1490 nM
- TGI (OVCAR-4 ovarian): 14400 nM
- GI50 (M14 melanoma): < 19.2 nM
- TGI (M14 melanoma): 1180 nM
- GI50 (NCI-H226 lung): 502 nM
- TGI (NCI-H226 lung): 19200 nM
- GI50 (KM12 colon): < 10 nM
- TGI (KM12 colon): 2450 nM
- GI50 (ACHN renal): < 30.7 nM
- TGI (ACHN renal): 1880 nM
- GI50 (BT-549 breast): 2220 nM
- TGI (BT-549 breast): 20400 nM
- GI50 (SK-MEL-5 melanoma): < 10 nM
- TGI (SK-MEL-5 melanoma): 137 nM
- GI50 (OVCAR-5 ovarian): 1110 nM
- TGI (OVCAR-5 ovarian): 11500 nM
- GI50 (EKVX NSCLC): 794 nM
- TGI (EKVX NSCLC): 20300 nM
- GI50 (HOP-92 NSCLC): 4890 nM
- TGI (HOP-92 NSCLC): 22300 nM
- GI50 (PC-3 prostate): 127 nM
- TGI (PC-3 prostate): 5850 nM
